{"source": "PubChem BioAssay AID1259407", "about": "(Chemical Carcinogenesis Research Information System (CCRIS), 2018)", "system": "CCRIS mutagenicity, Ames/micronucleus/aberration tests", "experiment": "CCRIS mutagenicity studies", "key": {"[1]": {"conditions": "Test System: AMES SALMONELLA TYPHIMURIUM, Strain/Indicator: TA98, Metabolic Activation: NONE, Method: STANDARD PLATE"}, "[2]": {"conditions": "Test System: AMES SALMONELLA TYPHIMURIUM, Strain/Indicator: TA98, Metabolic Activation: RAT, LIVER, S-9, AROCLOR 1254, Method: STANDARD PLATE"}, "[3]": {"conditions": "Test System: AMES SALMONELLA TYPHIMURIUM, Strain/Indicator: TA100, Metabolic Activation: NONE, Method: STANDARD PLATE"}, "[4]": {"conditions": "Test System: AMES SALMONELLA TYPHIMURIUM, Strain/Indicator: TA100, Metabolic Activation: RAT, LIVER, S-9, AROCLOR 1254, Method: STANDARD PLATE"}}, "note": "Calls of active or inactive are those of the source. The rule behind the calls is not given here."}
{"compound": "Cc1c(C)c2c(c(C)c1O)CC[C@@](C)(CCC[C@H](C)CCC[C@H](C)CCCC(C)C)O2", "values": [{"measurement": "mutagenic call", "setting": "[1]", "result": "inactive; negative"}, {"measurement": "mutagenic call", "setting": "[2]", "result": "inactive; negative"}, {"measurement": "mutagenic call", "setting": "[3]", "result": "inactive; negative"}, {"measurement": "mutagenic call", "setting": "[4]", "result": "inactive; negative"}, {"measurement": "mutagenic call", "setting": "Test System: AMES SALMONELLA TYPHIMURIUM, Strain/Indicator: TA1535, Metabolic Activation: NONE, Method: STANDARD PLATE", "result": "inactive; negative"}, {"measurement": "mutagenic call", "setting": "Test System: AMES SALMONELLA TYPHIMURIUM, Strain/Indicator: TA1535, Metabolic Activation: RAT, LIVER, S-9, AROCLOR 1254, Method: STANDARD PLATE", "result": "inactive; negative"}, {"measurement": "mutagenic call", "setting": "Test System: AMES SALMONELLA TYPHIMURIUM, Strain/Indicator: TA1537, Metabolic Activation: NONE, Method: STANDARD PLATE", "result": "inactive; negative"}, {"measurement": "mutagenic call", "setting": "Test System: AMES SALMONELLA TYPHIMURIUM, Strain/Indicator: TA1537, Metabolic Activation: RAT, LIVER, S-9, AROCLOR 1254, Method: STANDARD PLATE", "result": "inactive; negative"}, {"measurement": "mutagenic call", "setting": "Test System: AMES SALMONELLA TYPHIMURIUM, Strain/Indicator: TA1538, Metabolic Activation: NONE, Method: STANDARD PLATE", "result": "inactive; negative"}, {"measurement": "mutagenic call", "setting": "Test System: AMES SALMONELLA TYPHIMURIUM, Strain/Indicator: TA1538, Metabolic Activation: RAT, LIVER, S-9, AROCLOR 1254, Method: STANDARD PLATE", "result": "inactive; negative"}, {"measurement": "mutagenic call", "setting": "Test System: E. COLI, Strain/Indicator: WP2, Metabolic Activation: NONE, Method: STANDARD PLATE", "result": "inactive; negative"}, {"measurement": "mutagenic call", "setting": "Test System: E. COLI, Strain/Indicator: WP2, Metabolic Activation: RAT, LIVER, S-9, AROCLOR 1254, Method: STANDARD PLATE", "result": "inactive; negative"}]}
{"compound": "O=C1OCC(CBr)=C1Br", "values": [{"measurement": "mutagenic call", "setting": "[3]", "result": "active; positive"}]}
{"compound": "Nc1ccc(-c2ccc(Cl)cc2)cc1", "values": [{"measurement": "mutagenic call", "setting": "[1]", "result": "inactive; negative"}, {"measurement": "mutagenic call", "setting": "[2]", "result": "active; positive"}, {"measurement": "mutagenic call", "setting": "[3]", "result": "inactive; negative"}, {"measurement": "mutagenic call", "setting": "[4]", "result": "active; positive"}]}
{"compound": "COc1ccc(-c2nc(-c3ccc(C)cc3)c(-c3ccc(C)cc3)[nH]2)cc1OC", "values": [{"measurement": "mutagenic call", "setting": "[1]", "result": "active; positive"}, {"measurement": "mutagenic call", "setting": "Test System: AMES SALMONELLA TYPHIMURIUM, Strain/Indicator: TA98, Metabolic Activation: RAT LIVER S-9, 3-METHYLCHOLANTHRENE, SODIUM PHENOBARBITAL, Method: STANDARD PLATE", "result": "inactive; negative"}, {"measurement": "mutagenic call", "setting": "[3]", "result": "active; positive"}, {"measurement": "mutagenic call", "setting": "Test System: AMES SALMONELLA TYPHIMURIUM, Strain/Indicator: TA100, Metabolic Activation: RAT LIVER S-9, 3-METHYLCHOLANTHRENE, SODIUM PHENOBARBITAL, Method: STANDARD PLATE", "result": "inactive; negative"}]}
{"compound": "CCN(CC)CCNC(=O)c1ccc(N)cc1", "values": [{"measurement": "mutagenic call", "setting": "Test System: CHINESE HAMSTER V-79, Strain/Indicator: V-79 (HGPRT)/6-THIOGUANINE, Metabolic Activation: NONE", "result": "inactive; negative"}, {"measurement": "mutagenic call", "setting": "Test System: UDS HUMAN HEPATOCYTES, Strain/Indicator: THY INCORP, Metabolic Activation: NONE, Method: AUTORADIOGRAPHY", "result": "inactive; negative"}, {"measurement": "mutagenic call", "setting": "Test System: UDS RAT HEPATOCYTES, Strain/Indicator: THY INCORP, Metabolic Activation: NONE, Method: AUTORADIOGRAPHY", "result": "inactive; negative"}]}
{"compound": "CC(C)(O)C#N", "values": [{"measurement": "mutagenic call", "setting": "Test System: AMES SALMONELLA TYPHIMURIUM, Strain/Indicator: TA97, Metabolic Activation: HAMSTER, LIVER, S-9, AROCLOR 1254 (10 OR 30%), Method: PREINCUBATION", "result": "inactive; negative"}, {"measurement": "mutagenic call", "setting": "Test System: AMES SALMONELLA TYPHIMURIUM, Strain/Indicator: TA97, Metabolic Activation: NONE, Method: PREINCUBATION", "result": "inactive; negative"}, {"measurement": "mutagenic call", "setting": "Test System: AMES SALMONELLA TYPHIMURIUM, Strain/Indicator: TA97, Metabolic Activation: RAT, LIVER, S-9, AROCLOR 1254 (10%), Method: PREINCUBATION", "result": "inactive; negative"}, {"measurement": "mutagenic call", "setting": "Test System: AMES SALMONELLA TYPHIMURIUM, Strain/Indicator: TA97, Metabolic Activation: RAT, LIVER, S-9, AROCLOR 1254 (30%), Method: PREINCUBATION", "result": "inactive; negative"}, {"measurement": "mutagenic call", "setting": "Test System: AMES SALMONELLA TYPHIMURIUM, Strain/Indicator: TA98, Metabolic Activation: HAMSTER, LIVER, S-9, AROCLOR 1254 (10 OR 30%), Method: PREINCUBATION", "result": "inactive; negative"}, {"measurement": "mutagenic call", "setting": "Test System: AMES SALMONELLA TYPHIMURIUM, Strain/Indicator: TA98, Metabolic Activation: NONE, Method: PREINCUBATION", "result": "inactive; negative"}, {"measurement": "mutagenic call", "setting": "Test System: AMES SALMONELLA TYPHIMURIUM, Strain/Indicator: TA98, Metabolic Activation: RAT, LIVER, S-9, AROCLOR 1254 (10%), Method: PREINCUBATION", "result": "inactive; negative"}, {"measurement": "mutagenic call", "setting": "Test System: AMES SALMONELLA TYPHIMURIUM, Strain/Indicator: TA98, Metabolic Activation: RAT, LIVER, S-9, AROCLOR 1254 (30%), Method: PREINCUBATION", "result": "inactive; negative"}, {"measurement": "mutagenic call", "setting": "Test System: AMES SALMONELLA TYPHIMURIUM, Strain/Indicator: TA100, Metabolic Activation: HAMSTER, LIVER, S-9, AROCLOR 1254 (10 OR 30%), Method: PREINCUBATION", "result": "inactive; negative"}, {"measurement": "mutagenic call", "setting": "Test System: AMES SALMONELLA TYPHIMURIUM, Strain/Indicator: TA100, Metabolic Activation: NONE, Method: PREINCUBATION", "result": "inactive; negative"}, {"measurement": "mutagenic call", "setting": "Test System: AMES SALMONELLA TYPHIMURIUM, Strain/Indicator: TA100, Metabolic Activation: RAT, LIVER, S-9, AROCLOR 1254 (10%), Method: PREINCUBATION", "result": "inactive; negative"}, {"measurement": "mutagenic call", "setting": "Test System: AMES SALMONELLA TYPHIMURIUM, Strain/Indicator: TA100, Metabolic Activation: RAT, LIVER, S-9, AROCLOR 1254 (30%), Method: PREINCUBATION", "result": "inactive; negative"}, {"measurement": "mutagenic call", "setting": "Test System: AMES SALMONELLA TYPHIMURIUM, Strain/Indicator: TA1535, Metabolic Activation: HAMSTER, LIVER, S-9, AROCLOR 1254 (10 OR 30%), Method: PREINCUBATION", "result": "inactive; negative"}, {"measurement": "mutagenic call", "setting": "Test System: AMES SALMONELLA TYPHIMURIUM, Strain/Indicator: TA1535, Metabolic Activation: NONE, Method: PREINCUBATION", "result": "inactive; negative"}, {"measurement": "mutagenic call", "setting": "Test System: AMES SALMONELLA TYPHIMURIUM, Strain/Indicator: TA1535, Metabolic Activation: RAT, LIVER, S-9, AROCLOR 1254 (10%), Method: PREINCUBATION", "result": "inactive; negative"}, {"measurement": "mutagenic call", "setting": "Test System: AMES SALMONELLA TYPHIMURIUM, Strain/Indicator: TA1535, Metabolic Activation: RAT, LIVER, S-9, AROCLOR 1254 (30%), Method: PREINCUBATION", "result": "inactive; negative"}]}
{"compound": "Oc1ccc(Cl)cc1", "values": [{"measurement": "mutagenic call", "setting": "Test System: AMES SALMONELLA TYPHIMURIUM, Strain/Indicator: TA97, Metabolic Activation: NONE, Method: STANDARD PLATE", "result": "inactive; negative"}, {"measurement": "mutagenic call", "setting": "Test System: AMES SALMONELLA TYPHIMURIUM, Strain/Indicator: TA97, Metabolic Activation: RAT, LIVER, S-9, AROCLOR 1254, Method: STANDARD PLATE", "result": "active; positive"}, {"measurement": "mutagenic call", "setting": "[1]", "result": "inactive; negative"}, {"measurement": "mutagenic call", "setting": "[2]", "result": "active; positive"}, {"measurement": "mutagenic call", "setting": "Test System: AMES SALMONELLA TYPHIMURIUM, Strain/Indicator: TA98, Metabolic Activation: S-9, Method: STANDARD PLATE", "result": "active; positive"}, {"measurement": "mutagenic call", "setting": "[3]", "result": "inactive; negative"}, {"measurement": "mutagenic call", "setting": "[4]", "result": "active; positive"}, {"measurement": "mutagenic call", "setting": "Test System: AMES SALMONELLA TYPHIMURIUM, Strain/Indicator: TA100, Metabolic Activation: S-9, Method: STANDARD PLATE", "result": "inactive; negative"}, {"measurement": "mutagenic call", "setting": "Test System: AMES SALMONELLA TYPHIMURIUM, Strain/Indicator: TA104, Metabolic Activation: NONE, Method: STANDARD PLATE", "result": "inactive; negative"}, {"measurement": "mutagenic call", "setting": "Test System: AMES SALMONELLA TYPHIMURIUM, Strain/Indicator: TA104, Metabolic Activation: RAT, LIVER, S-9, AROCLOR 1254, Method: STANDARD PLATE", "result": "inactive; negative"}]}
